In patent publication US10845367B2, “Modified multispanning membrane polypeptides and methods of use thereof to screen therapeutic agents” (Abilita Bio, Inc., priority 2016, dated 2020):
Values after ≈ are worked out from the molar mass of the structure shown. Where two headings read alike, the source gives them in different places.

B1: EMP012: Modified GPR55 receptor (Enabled Membrane Protein), SEQ ID NO: 2, mutated relative to wild-type GPR55; used as cDNA and purified protein (protein, listed as Homo sapiens)
chain: MSQQNTSGNCLFDGMNELMKTLQFAVHIPTFVLGLLLNLLAIHGFSTFLKNRWPDYAATSIYMINLAVFDLLLVLSLPFKIVLSQVQSPFPSLCTLVECLYFVSMYGSVFTICFISMDRFLAIRYPLLVSHLRSPRKIFGICCTIWVLVWTGSIPIYSFHGKVEKYMCFHNMSDDTWSAKVFFPLEVFGFLLPMGIMGFCCSRSIHILLGRRDHTQDWVQQKACIYSIAASLAVFVVSFLPVHLGFFLQFLVRNSFIVECRAKQSISFFLQLSKCFSNVNCCLDVFCYYFVIKEFRMNIRAHRPSRVQLVLQDTTISRGAG

Key:
[1] = tested on: E. coli strains (e.g. BL21 or DH10beta); experiment: Growth of E. coli on LB medium with varying antibiotic concentrations (MIC); assay type: cell-based; details: for Antibiotic concentration to which resistance is conferred: E. coli transformed with mutated GPR55 clones; for MIC: Escherichia coli
[2] = target: T1, WT-GPR55 (Homo sapiens, UniProt Q9Y2T6); experiment: Genetic immunization of mice with protein boost, FACS analysis of sera on transfected cells; assay type: in vivo; details: C57BL6 mice; 50 μg cDNA in NanoTaxi, 2 DNA boosts, 1 boost with 50 μg purified protein in IFA; polyclonal sera by FACS
T1 construct: expressed in transfected cells
Protocol: The genetic immunization work was performed using NanoTaxi® at In-Cell-Art (Nantes, France). NanoTaxi® is a DNA delivery system optimized for genetic immunization where the delivered genetic material is formulated with a mixture of different chemical families of lipids and polymers.
The cDNA corresponding to the EMP012 of the GPR55 receptor was cloned into a pCMV-based vector and cell surface expression was confirmed via transient transfection of HEK293T and HeLa cells prior to immunogen administration.
C57BL6 mice were immunized with 50 μg EMP012 cDNA construct formulated into the NanoTaxi® for the primary challenge, followed by 2 boosts of 50 μg using the same NanoTaxi®-based formulation at two-weekly intervals, followed by 1 boost using 50 μg purified EMP012 protein in IFA adjuvant. In some instances, boosting was carried out for the in-vivo affinity maturation by somatic hypermutation of the primary antibody response. The level of immune response was assessed at regular intervals by FACS analysis using Hela cells transfected with an unrelated GPCR (left panel) or WT-GPR55 (right panel) (FIG. 7).

[3] = E. coli containing a plasmid encoding wild-type human GPR55
[4] = E. coli expressing certain constructs containing NTSR1 (rat, aa 43-424), read-out: Apparent MIC

T1 sequence (Q9Y2T6 with tags, fused parts or gaps): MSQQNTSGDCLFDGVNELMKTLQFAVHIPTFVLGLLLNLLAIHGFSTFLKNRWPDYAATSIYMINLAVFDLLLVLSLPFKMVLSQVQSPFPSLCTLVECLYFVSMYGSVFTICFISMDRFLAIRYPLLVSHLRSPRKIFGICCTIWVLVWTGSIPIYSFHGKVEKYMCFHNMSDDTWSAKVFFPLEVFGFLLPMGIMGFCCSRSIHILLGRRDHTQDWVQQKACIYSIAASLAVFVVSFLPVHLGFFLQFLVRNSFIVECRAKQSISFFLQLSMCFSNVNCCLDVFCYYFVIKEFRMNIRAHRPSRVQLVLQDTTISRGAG

Molecule	Antibiotic concentration to which resistance is conferred [1] [mg/L]	MIC [1, 3] [µg/mL]	MIC [1, 4] [µg/mL]	MIC ([1]; untransformed cells, LB medium) [µg/mL]	Immune response against WT-GPR55 [2]
NC[C@H]1O[C@H](O[C@H]2[C@H](O)[C@@H](O[C@H]3O[C@H](CO)[C@@H](O)[C@H](N)[C@H]3O)[C@H](N)C[C@@H]2N)[C@H](O)[C@@H](O)[C@@H]1O [kanamycin]	> 50	~25 (≈ 51.6 µM)	> 50	~10 (≈ 20.6 µM)	
CC1(C)S[C@@H]2[C@H](NC(=O)C(C(=O)O)c3ccccc3)C(=O)N2[C@H]1C(=O)O (some centres unmarked) [carbenicillin]	> 80	~40 (≈ 106 µM)	> 75		
B1					robust and specific immune response
